Reference: the supplement of paper PMC10307832

Experiments:
Test in all cases: relative viability (nuclei count vs DMSO), 5 days (fraction); higher = more cells survive
[1] = compound: CC1(C)CCC(CN2CCN(c3ccc(C(=O)NS(=O)(=O)c4ccc(NCC5CCOCC5)c([N+](=O)[O-])c4)c(Oc4cnc5[nH]ccc5c4)c3)CC2)=C(c2ccc(Cl)cc2)C1 [Venetoclax] + Cc1nc(Nc2ncc(C(=O)Nc3c(C)cccc3Cl)s2)cc(N2CCN(CCO)CC2)n1 [Dasatinib] (partner 0.075 µM)
Outline: (§1)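 Relative viability equals treated-well nuclei counts divided by vehicle-well nuclei counts. Counts came from 4× images of lung cancer cell lines grown in 1536-well plates for 5 days after pin-tool dosing on the day after seeding. Dosing used one drug alone or a fixed anchor-drug dose plus five library-drug doses (not always all listed) in √10 steps, and values are medians of duplicate plates.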

[2] = compound: Cn1cnc2c(F)c(Nc3ccc(Br)cc3Cl)c(C(=O)NOCCO)cc21 [Selumetinib] + CC(C)C[C@H](NC(=O)[C@H](Cc1ccccc1)NC(=O)c1cnccn1)B(O)O [Bortezomib] (partner 0.002 µM)
Outline: as §1

[3] = compound: Cn1cnc2c(F)c(Nc3ccc(Br)cc3Cl)c(C(=O)NOCCO)cc21 [Selumetinib] + Cc1cc(Nc2cc(N3CCN(C)CC3)nc(Sc3ccc(NC(=O)C4CC4)cc3)n2)n[nH]1 [Tozasertib] (partner 0.1 µM)
Outline: as §1

[4] = compound: Cn1cnc2c(F)c(Nc3ccc(Br)cc3Cl)c(C(=O)NOCCO)cc21 [Selumetinib] + Nc1nc2[nH]cc(CCc3ccc(C(=O)N[C@@H](CCC(=O)O)C(=O)O)cc3)c2c(=O)[nH]1 [Pemetrexed] (partner 0.2 µM)
Outline: as §1

| Cell Line | relative viability ([1]; first compound 0.01 µM) | relative viability ([1]; first compound 0.03162 µM) | relative viability ([1]; first compound 0.1 µM) | relative viability ([1]; first compound 0.3162 µM) | relative viability ([1]; first compound 1 µM) | relative viability ([2]; first compound 0.02 µM) | relative viability ([2]; first compound 0.06325 µM) | relative viability ([2]; first compound 0.2 µM) | relative viability ([2]; first compound 0.6325 µM) | relative viability ([3]; first compound 0.02 µM) | relative viability ([3]; first compound 0.06325 µM) | relative viability ([3]; first compound 0.2 µM) | relative viability ([3]; first compound 0.6325 µM) | relative viability ([4]; first compound 0.02 µM) | relative viability ([4]; first compound 0.06325 µM) | relative viability ([4]; first compound 0.2 µM) | relative viability ([4]; first compound 0.6325 µM) |
| --- | --- | --- | --- | --- | --- | --- | --- | --- | --- | --- | --- | --- | --- | --- | --- | --- | --- |
| 201T | 0.545 | 0.551 | 0.614 | 0.501 | 0.488 | 1.11 | 1 | 1.01 | 0.994 | 0.908 | 0.928 | 0.88 | 0.874 | 0.358 | 0.328 | 0.323 | 0.308 |
| A-427 | 0.667 | 0.726 | 0.667 | 0.687 | 0.639 | 1.06 | 0.978 | 1.05 | 0.959 | 0.205 | 0.193 | 0.168 | 0.17 | 1.11 | 1.05 | 1.05 | 1.04 |
| ABC-1 | 0.665 | 0.655 | 0.445 | 0.658 | 0.604 | 0.279 | 0.258 | 0.275 | 0.291 | 0.161 | 0.157 | 0.139 | 0.135 |  |  |  |  |
| BEN | 0.323 | 0.362 | 0.374 | 0.34 | 0.303 | 0.779 | 0.854 | 0.686 | 0.834 | 0.545 | 0.442 | 0.489 | 0.564 | 0.806 | 0.765 | 0.697 | 0.888 |
| CAL-12T | 0.286 | 0.476 | 0.381 | 0.398 | 0.314 | 0.768 | 0.935 | 0.849 | 0.772 | 0.34 | 0.364 | 0.301 | 0.229 | 1.28 | 1.25 | 1.1 | 0.969 |
| COR-L23 | 0.414 | 0.505 | 0.484 | 0.495 | 0.504 | 1.27 | 0.939 | 1.06 | 0.968 | 0.211 | 0.187 | 0.171 | 0.163 | 0.202 | 0.217 | 0.21 | 0.194 |
| COR-L 105 | 0.42 | 0.364 | 0.296 | 0.462 | 0.377 | 0.813 | 0.477 | 0.609 | 0.567 | 0.364 | 0.316 | 0.309 | 0.322 | 1.11 | 1.02 | 0.841 | 0.582 |
| Calu-6 |  |  |  |  |  | 1.07 | 0.792 | 0.648 | 0.558 |  |  |  |  |  |  |  |  |
| ChaGo-K-1 | 0.722 | 0.601 | 0.59 | 0.598 | 0.547 | 0.959 | 0.993 | 0.942 | 1.05 | 0.212 | 0.237 | 0.222 | 0.204 | 0.258 | 0.258 | 0.275 | 0.256 |
| EBC-1 |  |  |  |  |  | 0.759 | 0.625 | 0.578 | 0.304 |  |  |  |  |  |  |  |  |
| EKVX | 0.576 | 0.641 | 0.437 | 0.567 | 0.47 | 0.858 | 0.795 | 0.543 | 0.748 | 0.36 | 0.345 | 0.378 | 0.336 | 0.342 | 0.361 | 0.323 | 0.307 |
| EMC-BAC-2 | 0.331 | 0.343 | 0.292 | 0.327 | 0.31 | 1.06 | 1.07 | 1.01 | 0.999 | 0.383 | 0.361 | 0.349 | 0.387 | 0.508 | 0.539 | 0.522 | 0.574 |
| EPLC-272H | 0.399 | 0.379 | 0.352 | 0.36 | 0.346 | 0.966 | 0.864 | 0.779 | 0.567 | 0.185 | 0.181 | 0.34 | 0.283 | 0.317 | 0.375 | 0.326 | 0.34 |
| H3255 | 0.367 | 0.399 | 0.373 | 0.446 | 0.404 | 0.82 | 0.801 | 0.761 | 0.962 | 0.624 | 0.687 | 0.74 | 0.556 | 0.564 | 0.571 | 0.552 | 0.549 |
| HARA | 0.422 | 0.258 | 0.228 | 0.249 | 0.216 | 1.03 | 1.07 | 1.01 | 0.861 | 0.108 | 0.115 | 0.111 | 0.102 | 0.24 | 0.179 | 0.224 | 0.217 |
| HCC-15 | 0.607 | 0.627 | 0.587 | 0.645 | 0.549 | 0.842 | 0.677 | 0.559 | 0.424 | 0.372 | 0.209 | 0.268 | 0.158 | 0.194 | 0.221 | 0.203 | 0.214 |
| HCC-44 |  |  |  |  |  | 0.993 | 0.882 | 0.945 | 0.971 | 1.12 | 0.93 | 0.747 | 0.701 | 0.635 | 0.748 | 0.684 | 0.75 |
| HCC-78 | 0.442 | 0.441 | 0.409 | 0.323 | 0.368 | 0.468 | 0.359 | 0.392 | 0.425 | 0.703 | 0.44 | 0.436 | 0.408 | 0.836 | 0.892 | 0.918 | 0.903 |
| HCC-366 | 0.618 | 0.592 | 0.523 | 0.56 | 0.54 | 1.07 | 0.935 | 0.864 | 0.761 | 0.127 | 0.109 | 0.104 | 0.0897 | 0.224 | 0.191 | 0.234 | 0.206 |
| HCC-827 | 0.336 | 0.368 | 0.34 | 0.33 | 0.334 | 1.22 | 1.03 | 1.02 | 0.975 | 0.42 | 0.393 | 0.408 | 0.361 | 0.25 | 0.277 | 0.269 | 0.288 |
